Reference: PubChem BioAssay AID330 (DTP/NCI, 2004)
Several values for one entry are separate records, joined by “and”; a condition that tells them apart may be missing. Equal entries are not always repeated. Toxic doses and inconclusive results are not listed. Rule for the calls: active = survival T/C of 150% or more; inactive = T/C below 125% in these data. Peptide text beside a SMILES is read from it. * marks the point of attachment. Cbz = O=C(OCc1ccccc1)*

System: P388 leukemia ip, CD2F1 mice, survival T/C
Assay: NCI In Vivo Anticancer Drug Screen. Data for tumor model P388 Leukemia (intraperitoneal) in CD2F1 (CDF1) mice
Details: endpoint: median survival time, higher = longer survival
Outline: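 Mice carrying the transplanted tumor received test compound or vehicle. Survival was recorded in each group, and the value is the treated-group measurement divided by that of the vehicle-treated control group.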

[1] = dose: 50.0 mg/kg/injection, schedule: Q04DX003 (ip), vehicle: saline with Tween-80
[2] = dose: 100.0 mg/kg/injection, schedule: Q04DX003 (ip), vehicle: saline with Tween-80
[3] = dose: 200.0 mg/kg/injection, schedule: Q04DX003 (ip), vehicle: saline with Tween-80
[4] = dose: 50.0 mg/kg/injection, schedule: Q01DX009 (ip), vehicle: Klucel (hydroxypropylcellulose) (HPC)
[5] = dose: 100.0 mg/kg/injection, schedule: Q01DX009 (ip), vehicle: Klucel (hydroxypropylcellulose) (HPC)
[6] = dose: 200.0 mg/kg/injection, schedule: Q01DX009 (ip), vehicle: Klucel (hydroxypropylcellulose) (HPC)
[7] = dose: 50.0 mg/kg/injection, schedule: Q01DX005 (ip), vehicle: saline with Tween-80
[8] = dose: 100.0 mg/kg/injection, schedule: Q01DX005 (ip), vehicle: saline with Tween-80
[9] = dose: 400.0 mg/kg/injection, schedule: Q04DX003 (ip), vehicle: saline with Tween-80

Measured: T/C

COC(=O)C(CO)NC(=O)C(CO)NC(=O)OCc1ccccc1 (stereo not drawn) (Cbz-Ser-Ser-OMe; configuration not given here)
inactive: dose: 50.0 mg/kg/injection, schedule: Q01DX005 (ip), vehicle: Klucel (hydroxypropylcellulose) (HPC) 100 % of control | dose: 100.0 mg/kg/injection, schedule: Q01DX005 (ip), vehicle: Klucel (hydroxypropylcellulose) (HPC) 98 % of control | dose: 200.0 mg/kg/injection, schedule: Q01DX005 (ip), vehicle: Klucel (hydroxypropylcellulose) (HPC) 101 % of control

CC1(C)C(=O)CCC2(C)C1CC(=O)C1(C)C2CCC2(C)C(c3ccoc3)OC(=O)C3OC321 (stereo not given)
inactive: dose: 0.5 mg/kg/injection, schedule: Q01DX009 (ip), vehicle: Klucel (hydroxypropylcellulose) (HPC) 100 % of control and 102 % of control | dose: 1.0 mg/kg/injection, schedule: Q01DX009 (ip), vehicle: Klucel (hydroxypropylcellulose) (HPC) 102 % of control | dose: 2.0 mg/kg/injection, schedule: Q01DX009 (ip), vehicle: Klucel (hydroxypropylcellulose) (HPC) 92 % of control and 96 % of control | dose: 4.0 mg/kg/injection, schedule: Q01DX009 (ip), vehicle: Klucel (hydroxypropylcellulose) (HPC) 98 % of control and 93 % of control | dose: 8.0 mg/kg/injection, schedule: Q01DX009 (ip), vehicle: Klucel (hydroxypropylcellulose) (HPC) 98 % of control and 86 % of control

N#CSC/C(=N\Nc1ccc([N+](=O)[O-])cc1[N+](=O)[O-])c1ccccc1
inactive: [1] 100 % of control | [2] 95 % of control | [3] 113 % of control

NC(=O)N/N=C/c1cccc(O)c1O
inactive: [4] 101 % of control | [5] 107 % of control | [6] 116 % of control

OC(CCl)COn1nnc2ccccc21 (stereo not given)
inactive: dose: 25.0 mg/kg/injection, schedule: Q01DX005 (ip), vehicle: saline with Tween-80 100 % of control | [7] 102 % of control | [8] 100 % of control | [2] 98 % of control | [3] 99 % of control | [9] 94 % of control

COC(=O)/C=C1/Nc2c(N)nc(N)nc2NC1=O
inactive: dose: 100.0 mg/kg/injection, schedule: Q04DX003 (ip), vehicle: saline 108 % of control | dose: 200.0 mg/kg/injection, schedule: Q04DX003 (ip), vehicle: saline 94 % of control | dose: 400.0 mg/kg/injection, schedule: Q04DX003 (ip), vehicle: saline 95 % of control

OC1OC(Cn2c3ccccc3c3ccccc32)C(O)C(O)C1O (stereo not given)
inactive: dose: 50.0 mg/kg/injection, schedule: Q01DX001 (ip), vehicle: saline with Tween-80 100 % of control | dose: 100.0 mg/kg/injection, schedule: Q01DX001 (ip), vehicle: saline with Tween-80 107 % of control | dose: 200.0 mg/kg/injection, schedule: Q01DX001 (ip), vehicle: saline with Tween-80 114 % of control

C=Cc1ccccc1NC(C(=O)O)c1ccccc1 (stereo not given)
inactive: [7] 107 % of control | [8] 106 % of control | dose: 200.0 mg/kg/injection, schedule: Q01DX005 (ip), vehicle: saline with Tween-80 104 % of control

CC12CCC3(CC(=O)C1CCC2O)OCCO3 (stereo not given)
inactive: [4] 107 % of control | [5] 103 % of control | [6] 116 % of control

COC1=CC(=O)C(O)=C(CC2(C)C(C)CCC3(C)C2CCCC3(C)C)C1=O (stereo not given)
inactive: [4] 112 % of control | [5] 112 % of control

CCOP(=O)(O)OCC.[Y]
inactive: [2] 93 % of control | [3] 100 % of control | [9] 111 % of control

Cc1ccc2nc(-c3ccc4nc(-c5ccc(N=Nc6ccc(-c7nc8ccc(-c9nc%10ccc(C)c(S(=O)(=O)O)c%10s9)cc8s7)cc6)cc5)sc4c3)sc2c1S(=O)(=O)O
inactive: dose: 50.0 mg/kg/injection, schedule: Q01DX009 (ip), vehicle: saline 113 % of control and 116 % of control | dose: 100.0 mg/kg/injection, schedule: Q01DX009 (ip), vehicle: saline 116 % of control and 121 % of control | dose: 200.0 mg/kg/injection, schedule: Q01DX009 (ip), vehicle: saline 112 % of control and 123 % of control

CCc1cc(C)cc(NC(=O)OC2CCCCC2C)c1 (stereo not given)
inactive: dose: 60.0 mg/kg/injection, schedule: Q01DX005 (ip), vehicle: saline with Tween-80 102 % of control | dose: 120.0 mg/kg/injection, schedule: Q01DX005 (ip), vehicle: saline with Tween-80 112 % of control | dose: 240.0 mg/kg/injection, schedule: Q01DX005 (ip), vehicle: saline with Tween-80 111 % of control

CCCCC(CC)CCC(C)O (stereo not given)
inactive: [1] 100 % of control | [2] 109 % of control
